Data published in US20240368131A1, “OXOINDOLINYL AMIDE DERIVATIVES FOR INHIBITING NLRP3 AND USES THEREOF” (VENTUS THERAPEUTICS U.S. INC., priority 2022, published 2024).

What was measured:
human NLRP3 [1] = target: T1, human NLRP3 (Homo sapiens, UniProt Q96P20); assay: Human PBMC NLRP3 Assay (IL-1β release); format: cell-based; set-up: Human PBMCs (Normal): iXCells Cat #10HU-003; host or cells: human PBMCs (normal donors), LPS-primed, nigericin-stimulated; details: human PBMCs
Protocol: Reagents: Human PBMCs (Normal): iXCells Cat #10HU-003; RPMI 1640 medium (ATCC modification): ThermoFisher Cat #A1049101 (Complete Media: 10% FBS, 1% Pen/Strep; Assay Media: 1% Pen/Strep; 75 cm^2 cell culture flask: Corning Cat #430641U; 96-well cell culture plates: VWR Cat #10062-900; LPS (E. coli 026:B6): Sigma Cat #L2654, stock 5 mg/mL in PBS; Nigericin sodium salt: Sigma Cat #N7143, stock 5 mg/mL (6.7 mM) in ethanol.
Cryopreserved PBMCs (10×10^6 cells/vial) were rapidly thawed in a 37° C. water bath for 2 min and transferred in 10 mL Complete Media. Cells were then centrifuged at 1200 RPM for 5 min, resuspended in 40 mL of Complete Media, transferred in a 75 cm^2 cell culture flask and incubated overnight at 37° C. with 5% CO2. The next day, PBMCs were centrifuged, resuspended in 30 mL Assay Media (˜3.3×10^5 cells/mL) and distributed at 100 μL/well in a 96-well cell culture plate. 50 μl of Assay Media containing 300 ng/ml of LPS was then added to each well except for the untreated control wells (50 μl Assay Media without LPS). Cells were then primed with LPS for 4 h at 37° C. with 5% CO2. A concentration response curve (CRC) was prepared of 500× test compound in 100% dimethyl sulfoxide (DMSO). The CRC was then diluted 1:25 in Assay Media and then further diluted 1:5 in Assay Media resulting in a final 4× CRC in 0.8% DMSO/Assay Media. 50 μL/well of 4× test compound CRC or vehicle (0.8% DMSO/Assay Media) was then transferred into each well and subsequently incubated for 30 min at 37° C. with 5% CO2. Cells were stimulated by adding 4 μL of 500 μM Nigericin, for 1 h at 37° C. with 5% CO2 Plates were then centrifuged at 1200 RPM for 5 min and 100 μl of the media was transferred to a clean 96-well storage plate and stored at −80° C. until analyzed. Cytokine measurements were performed using the mesoscale platform. Compounds were added 30 minutes before priming the cells with LPS when TNFα was required to be quantified in the cytokine panel to confirm selectivity.
Human PBMC NLRP3 Assay: A represents an IC50 value <0.3 μM; B represents an IC50 value ≥0.3 μM and <0.5 μM; C represents an IC50 value ≥0.5 μM and <1.0 μM; D represents an IC50 value >1.0 μM and <10 μM; E represents an IC50 value >10 μM.

human NLRP3 [2] = target: T1, human NLRP3; assay: Human Whole Blood (hWB) NLRP3 Assay (IL-1β MSD); format: cell-based; details: LPS 1 μg/ml 4.5 h, ATP 30 min, class symbols
Protocol: Human whole blood was drawn from healthy volunteers after obtaining written informed consent. Heparin lithium coated tubes were used to collect blood from volunteers. Blood samples were distributed on 96 well plates using 90 μl per well. Priming was performed by adding 5 μl of LPS (O26:B6; Sigma L-2654) at a final concentration of 1 μg/ml for 4.5 hours in a humidified incubator with 37° C., 5% CO2. Thirty minutes prior to NLRP3 activation, 5 μl of a 20× compound solution or vehicle (2% DMSO) was added to each well and plates were incubated on a shaker (450 rpm) in a humidified incubator with 37° C., 5% CO2. Activation was then performed by adding 3.3 μl of a 31× ATP solution per well. At the end of the 30 minutes stimulation, the plates were centrifuged (800 g, 10 min, room temperature) and the plasma from each well was frozen at −80° C. IL-1β levels in the supernatant were analyzed using a mesoscale discovery assay (MSD K151TUK) according to the manufacturers' instructions.
hWB IL-1β Assay: A represents an IC50 value <0.3 μM; B represents an IC50 value ≥0.3 μM and <0.5 μM; C represents an IC50 value ≥0.5 μM and <1.0 μM; D represents an IC50 value >1.0 μM.

[3] = LPS priming 4 h, nigericin stimulation 1 h, class symbols
[4] = LPS priming, nigericin stimulation, numeric values of Tables C1-C4

T1 sequence (Q96P20 whole entry): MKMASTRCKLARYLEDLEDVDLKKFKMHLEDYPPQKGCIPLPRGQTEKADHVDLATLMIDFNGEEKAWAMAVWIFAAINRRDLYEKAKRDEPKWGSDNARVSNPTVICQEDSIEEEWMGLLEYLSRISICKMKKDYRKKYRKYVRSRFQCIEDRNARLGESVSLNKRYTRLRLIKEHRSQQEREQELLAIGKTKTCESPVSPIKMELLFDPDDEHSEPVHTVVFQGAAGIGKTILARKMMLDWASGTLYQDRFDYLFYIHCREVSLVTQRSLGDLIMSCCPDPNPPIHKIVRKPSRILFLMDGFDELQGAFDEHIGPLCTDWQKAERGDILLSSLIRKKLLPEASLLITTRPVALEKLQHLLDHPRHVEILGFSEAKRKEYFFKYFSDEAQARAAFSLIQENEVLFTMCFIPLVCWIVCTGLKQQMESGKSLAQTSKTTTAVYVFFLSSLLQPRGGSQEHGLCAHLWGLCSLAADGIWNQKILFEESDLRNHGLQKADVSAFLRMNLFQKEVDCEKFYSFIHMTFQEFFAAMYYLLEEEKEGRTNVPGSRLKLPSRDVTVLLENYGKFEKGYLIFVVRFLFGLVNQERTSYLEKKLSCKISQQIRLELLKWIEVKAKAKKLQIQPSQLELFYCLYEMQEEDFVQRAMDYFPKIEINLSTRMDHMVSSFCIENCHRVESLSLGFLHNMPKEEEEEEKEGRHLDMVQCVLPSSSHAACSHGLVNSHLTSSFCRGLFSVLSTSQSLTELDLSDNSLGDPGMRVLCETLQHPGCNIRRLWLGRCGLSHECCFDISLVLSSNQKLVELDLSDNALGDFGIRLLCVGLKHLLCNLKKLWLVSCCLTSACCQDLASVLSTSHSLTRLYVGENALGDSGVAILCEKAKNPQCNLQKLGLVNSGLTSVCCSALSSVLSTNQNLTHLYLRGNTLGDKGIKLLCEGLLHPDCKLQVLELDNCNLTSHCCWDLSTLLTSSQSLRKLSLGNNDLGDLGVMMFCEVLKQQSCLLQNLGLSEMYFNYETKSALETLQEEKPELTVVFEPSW

SMILES | IC50 (human NLRP3 [1]; [3]) [nM] | IC50 (human NLRP3 [2]) [nM] | IC50 (human NLRP3 [1]; [4]) [nM]
CC1(C)C(=O)N(CC(=O)N[C@@H]2CCC[C@@H]2C(=O)O)c2ccc(Br)cc21 (single isomer, unassigned) [52A*] | > 10000 | – | –
C[C@H](NC(=O)CN1C(=O)C(C)(C)c2c(F)c(C(F)(F)F)cc(F)c21)[C@@H](C)CC(=O)O (single isomer, unassigned) [67C*] | – | > 1000 | –
C[C@H](CC(=O)O)[C@@H](C)NC(=O)CN1C(=O)C(C)(C)c2c(F)c(C(F)(F)F)cc(F)c21 (single isomer, unassigned) [67D*] | – | 300 to 500 | –
O=C(O)CCCNC(=O)Cn1ccc2ccccc21 [COMPARATIVE EXAMPLE 1, 4-(2-(1H-indol-1-yl)acetamido)butanoic acid, reference compound] | – | – | > 100000
O=C(O)CCCNC(=O)Cn1ccc2cc(Br)ccc21 [COMPARATIVE EXAMPLE 2, 4-(2-(5-bromo-1H-indol-1-yl)acetamido)butanoic acid, reference compound] | – | – | 7200
O=C(O)CCCNC(=O)CN1C(=O)Cc2cc(Br)ccc21 [COMPARATIVE EXAMPLE 3, 4-(2-(5-bromo-2-oxoindolin-1-yl)acetamido)butanoic acid, reference compound] | – | – | 47000
O=C(O)CCCNC(=O)CN1C(=O)C(=O)c2cc(Br)ccc21 [COMPARATIVE EXAMPLE 4, 4-(2-(5-bromo-2,3-dioxoindolin-1-yl)acetamido)butanoic acid, reference compound] | – | – | > 100000
O=C(O)CCNC(=O)Cn1ccc2cc(Br)ccc21 [COMPARATIVE EXAMPLE 5, 3-(2-(5-bromo-1H-indol-1-yl)acetamido)propanoic acid, reference compound] | – | – | > 100000
CC1(C)C(=O)N(CC(=O)NCCCc2nnc[nH]2)c2c(F)cc(C3CC3)c(F)c21 [COMPARATIVE EXAMPLE 6, N-(3-(4H-1,2,4-triazol-3-yl)propyl)-2-(5-cyclopropyl-4,7-difluoro-3,3-dimethyl-2-oxoindolin-1-yl)acetamide, reference compound] | – | – | 941
CC1(C)C(=O)N(CC(=O)NCCCc2cn[nH]n2)c2c(F)cc(C3CC3)c(F)c21 [COMPARATIVE EXAMPLE 7, N-(3-(2H-1,2,3-triazol-4-yl)propyl)-2-(5-cyclopropyl-4,7-difluoro-3,3-dimethyl-2-oxoindolin-1-yl)acetamide, reference compound] | – | – | 676
O=C(O)CCCNC(=O)CN1C(=O)C2(CCCC2)c2cc(Br)ccc21 [Compound 5, 4-(2-(5′-bromo-2′-oxospiro[cyclopentane-1,3′-indolin]-1′-yl)acetamido)butanoic acid] | > 10000 | – | –
CC1(C)C(=O)N(C2(C(=O)NCCCC(=O)O)CC2)c2ccc(Br)cc21 [Compound 15, 4-(1-(5-bromo-3,3-dimethyl-2-oxoindolin-1-yl)cyclopropane-1-carboxamido)butanoic acid] | > 10000 | – | –
CC1(C)C(=O)N(CC(=O)NCCCC(=O)O)c2cc(F)c(Br)cc21 [Compound 20, 4-(2-(5-bromo-6-fluoro-3,3-dimethyl-2-oxoindolin-1-yl)acetamido)butanoic acid] | 1000 to 10000 | – | –
CC1(C)C(=O)N(CC(=O)NCCCC(=O)O)c2ccc(C3CCCC3)cc21 [Compound 25, 4-(2-(5-cyclopentyl-3,3-dimethyl-2-oxoindolin-1-yl)acetamido)butanoic acid] | > 10000 | – | –
COc1cc(Br)cc2c1N(CC(=O)NCCCC(=O)O)C(=O)C2(C)C [Compound 27, 4-(2-(5-bromo-7-methoxy-3,3-dimethyl-2-oxoindolin-1-yl)acetamido)butanoic acid] | > 10000 | – | –
CC1(C)C(=O)N(CC(=O)NCCCC(=O)O)c2cc(O)c(Br)cc21 [Compound 36, 4-(2-(5-bromo-6-hydroxy-3,3-dimethyl-2-oxoindolin-1-yl)acetamido)butanoic acid] | > 10000 | – | –
CC1(C)C(=O)N(CC(=O)NCc2ccccc2C(=O)O)c2ccc(Br)cc21 [Compound 49, 2-((2-(5-bromo-3,3-dimethyl-2-oxoindolin-1-yl)acetamido)methyl)benzoic acid] | > 10000 | – | –
CC1(C)C(=O)N(CC(=O)NCCCC(=O)O)c2c(C(F)(F)F)cc(Br)cc21 [Compound 50, 4-(2-(5-bromo-3,3-dimethyl-2-oxo-7-(trifluoromethyl)indolin-1-yl)acetamido)butanoic acid] | > 10000 | – | –

Continued, values first:

IC50 (human NLRP3 [1]; [3]) [nM] | IC50 (human NLRP3 [2]) [nM] | IC50 (human NLRP3 [1]; [4]) [nM] | SMILES
< 300 | – | – | C[C@@H](CNC(=O)CN1C(=O)C(C)(C)c2cc(Br)cc(O)c21)CC(=O)O (single isomer, unassigned) [42A*]
< 300 | – | – | C[C@H](CNC(=O)CN1C(=O)C(C)(C)c2cc(Br)cc(O)c21)CC(=O)O (single isomer, unassigned) [42B*]
500 to 1000 | – | 570 | O=C(O)CCCNC(=O)CN1C(=O)C2(CC2)c2cc(Br)ccc21 [Compound 6, 4-(2-(5′-bromo-2′-oxospiro[cyclopropane-1,3′-indolin]-1′-yl)acetamido)butanoic acid]
1000 to 10000 | – | – | Cc1ccc2c(c1)C(C)(C)C(=O)N2CC(=O)NCCCC(=O)O [Compound 7, 4-(2-(3,3,5-trimethyl-2-oxoindolin-1-yl)acetamido)butanoic acid]
500 to 1000 | – | 690 | CC(C)(CCC(=O)O)NC(=O)CN1C(=O)C(C)(C)c2cc(C(F)(F)F)ccc21 [Compound 8, 4-(2-(3,3-dimethyl-2-oxo-5-(trifluoromethyl)indolin-1-yl)acetamido)-4-methylpentanoic acid]
500 to 1000 | – | 670 | CC(C)(CCC(=O)O)NC(=O)CN1C(=O)C(C)(C)c2cc(C3CC3)ccc21 [Compound 9, 4-(2-(5-cyclopropyl-3,3-dimethyl-2-oxoindolin-1-yl)acetamido)-4-methylpentanoic acid]
300 to 500 | – | – | CC(C)c1ccc2c(c1)C(C)(C)C(=O)N2CC(=O)NC(C)(C)CCC(=O)O [Compound 10, 4-(2-(5-isopropyl-3,3-dimethyl-2-oxoindolin-1-yl)acetamido)-4-methylpentanoic acid]
< 300 | – | 110 | CC(C)(CNC(=O)CN1C(=O)C(C)(C)c2cc(Br)ccc21)CC(=O)O [Compound 13, 4-(2-(5-bromo-3,3-dimethyl-2-oxoindolin-1-yl)acetamido)-3,3-dimethylbutanoic acid]
1000 to 10000 | – | – | CC(C)(CCNC(=O)CN1C(=O)C(C)(C)c2cc(Br)ccc21)C(=O)O [Compound 14, 4-(2-(5-bromo-3,3-dimethyl-2-oxoindolin-1-yl)acetamido)-2,2-dimethylbutanoic acid]
< 300 | – | – | C[C@H](CCC(=O)O)NC(=O)CN1C(=O)C(C)(C)c2cc(Br)cc(O)c21 [Compound 41A, (R)-4-(2-(5-bromo-7-hydroxy-3,3-dimethyl-2-oxoindolin-1-yl)acetamido)pentanoic acid]
< 300 | – | – | CC1(C)C(=O)N(CC(=O)NC2(CCC(=O)O)CC2)c2c(O)cc(Br)cc21 [Compound 44, 3-(1-(2-(5-bromo-7-hydroxy-3,3-dimethyl-2-oxoindolin-1-yl)acetamido)cyclopropyl)propanoic acid]
300 to 500 | – | 410 | O=C(O)CCCNC(=O)CN1C(=O)C(F)(F)c2cc(Br)ccc21 [Compound 51, 4-(2-(5-bromo-3,3-difluoro-2-oxoindolin-1-yl)acetamido)butanoic acid]
